Broadly, the Ki is a dissociation constant, usually derived from enzyme kinetics or from competition with a known ligand.

The values that follow come from patent publication US7998987B2, “Inhibitors of c-Met and uses thereof” (Vertex Pharmaceuticals Incorporated, priority 2005, dated 2011).

Chain of c-Met (P08581 25-1390): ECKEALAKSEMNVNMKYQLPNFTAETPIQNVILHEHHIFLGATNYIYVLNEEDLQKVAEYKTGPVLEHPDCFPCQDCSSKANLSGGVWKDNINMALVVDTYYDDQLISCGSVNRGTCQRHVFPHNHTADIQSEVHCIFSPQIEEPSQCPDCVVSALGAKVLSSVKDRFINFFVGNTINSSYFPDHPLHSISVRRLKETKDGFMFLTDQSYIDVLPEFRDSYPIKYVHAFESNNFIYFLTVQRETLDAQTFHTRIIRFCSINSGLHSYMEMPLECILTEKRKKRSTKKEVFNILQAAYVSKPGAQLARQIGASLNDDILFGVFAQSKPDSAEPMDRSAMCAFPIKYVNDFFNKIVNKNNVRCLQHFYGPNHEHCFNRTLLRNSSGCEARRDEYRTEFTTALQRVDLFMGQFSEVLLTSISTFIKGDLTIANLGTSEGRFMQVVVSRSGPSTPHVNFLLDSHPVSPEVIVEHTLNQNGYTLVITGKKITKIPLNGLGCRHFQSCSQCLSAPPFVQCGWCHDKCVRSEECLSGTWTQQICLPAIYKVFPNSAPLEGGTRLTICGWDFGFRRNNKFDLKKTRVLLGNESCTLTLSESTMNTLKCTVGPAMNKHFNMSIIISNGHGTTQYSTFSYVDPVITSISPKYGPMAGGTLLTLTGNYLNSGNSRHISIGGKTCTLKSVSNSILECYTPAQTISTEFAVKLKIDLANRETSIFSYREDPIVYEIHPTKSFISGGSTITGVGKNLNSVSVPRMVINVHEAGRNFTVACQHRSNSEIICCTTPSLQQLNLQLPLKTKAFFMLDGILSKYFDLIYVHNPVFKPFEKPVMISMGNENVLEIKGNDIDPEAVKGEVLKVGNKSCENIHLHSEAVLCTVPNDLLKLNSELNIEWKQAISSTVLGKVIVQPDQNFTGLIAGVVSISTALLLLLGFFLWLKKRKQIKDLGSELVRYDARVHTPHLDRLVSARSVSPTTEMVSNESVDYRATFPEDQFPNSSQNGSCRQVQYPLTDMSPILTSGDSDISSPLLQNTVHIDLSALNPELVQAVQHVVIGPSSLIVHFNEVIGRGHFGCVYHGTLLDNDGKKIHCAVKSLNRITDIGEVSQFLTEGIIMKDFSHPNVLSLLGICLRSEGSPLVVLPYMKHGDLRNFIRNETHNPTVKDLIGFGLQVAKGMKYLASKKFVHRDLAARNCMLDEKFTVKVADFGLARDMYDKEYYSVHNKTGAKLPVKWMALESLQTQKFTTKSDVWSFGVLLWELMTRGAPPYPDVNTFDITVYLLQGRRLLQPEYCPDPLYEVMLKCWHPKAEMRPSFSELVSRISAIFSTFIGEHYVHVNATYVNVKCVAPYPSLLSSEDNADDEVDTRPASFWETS

The target of one assay is c-Met (Homo sapiens, UniProt P08581). Kind of assay: Ki determination for the inhibition of c-Met kinase activity (standard coupled enzyme system). The format is biochemical. The conditions noted are these: coupled enzyme system, 200 μM ATP, 80 nM c-Met, 30° C.; number printed instead of class symbol; read-out: c-Met Ki. In outline:
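Continuous coupled-enzyme (PK/LDH, NADH depletion) assay with 80 nM c-Met, 200 μM ATP and 10 μM polyGluTyr in 100 mM HEPES pH 7.5, 10 mM MgCl2, 1.5% DMSO at 30 °C.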
`COc1ccc(C2(c3nnc4ccc(Nc5cccc(Cl)c5)nn34)CC2)cc1` [Compound 356]: the Ki amounted to 0.1 µM.

The same assay, now with this note: coupled enzyme system, 200 μM ATP, 80 nM c-Met, 30° C.; read-out: c-Met Ki.
In the case of `OCCc1cccc(Nc2ccc3nnc(Cc4ccc(O)c(Cl)c4)n3n2)c1` [Compound 300], the Ki lay within 0.1 to 2 µM.

With `OCCc1cccc(Nc2ccc3nnc(Cc4ccc5c(c4)OCO5)n3n2)c1` [Compound 301], the Ki is 0.1 to 2 µM.

For `CC1(C)CC(Nc2ccc3nnc(Cc4ccc(O)cc4)n3n2)CCO1` (stereo not shown) [Compound 302], the Ki was in the range of 0.1 to 2 µM.

For the compound `C[C@H](CO)Nc1ccc2nnc(Cc3ccc(O)cc3)n2n1` [Compound 303], the Ki was in the range of 0.1 to 2 µM.

`COC[C@@H](C)Nc1ccc2nnc(Cc3ccc(O)cc3)n2n1` [Compound 304]: the Ki was 0.1 to 2 µM.

Turning to `Oc1ccc(Cc2nnc3ccc(Sc4cccc(Cl)c4)nn23)cc1` [Compound 305], the Ki was less than 0.1 µM.

In the case of `CCOC(=O)N1CCC(Nc2ccc3nnc(Cc4ccc(O)cc4)n3n2)CC1` [Compound 306], the Ki lay in the range of 0.1 to 2 µM.

Regarding `O=C1NCCCCC1Nc1ccc2nnc(Cc3ccc(O)cc3)n2n1` (stereo not shown) [Compound 307], the Ki was more than 2 µM.

With `CC[C@@H](CO)Nc1ccc2nnc(Cc3ccc(O)cc3)n2n1` [Compound 308], the Ki was in the range of 0.1 to 2 µM.

In the case of `C[C@@H](Nc1ccc2nnc(Cc3ccc(O)cc3)n2n1)C(C)(C)C` [Compound 309], the Ki was in the range of 0.1 to 2 µM.

As to `C[C@H](Nc1ccc2nnc(Cc3ccc(O)cc3)n2n1)c1ccccc1` [Compound 310], the Ki was 0.1 to 2 µM.

On to `CCN(CC)CC(C)Nc1ccc2nnc(Cc3ccc(O)cc3)n2n1` (stereo not shown) [Compound 311], for which the Ki was more than 2 µM.

As for `CC[C@H](CO)Nc1ccc2nnc(Cc3ccc(O)cc3)n2n1` [Compound 312], the Ki lay within 0.1 to 2 µM.

Turning to `C[C@@H](Nc1ccc2nnc(Cc3ccc(O)cc3)n2n1)c1ccccc1` [Compound 313], the Ki lay in the range of 0.1 to 2 µM.

For `Fc1ccc(Cc2nnc3ccc(Nc4cccc(Cl)c4)nn23)c(Cl)c1` [Compound 314], the Ki fell in the range of 0.1 to 2 µM.

On to `Clc1cccc(Nc2ccc3nnc(Cc4ccccc4)n3n2)c1` [Compound 315], for which the Ki was more than 2 µM.

For the compound `O=C(Cc1nnc2ccc(Nc3cccc(Cl)c3)nn12)c1cccnc1` [Compound 316], the Ki was more than 2 µM.

As to `Nc1cccc(Cc2nnc3ccc(Nc4cccc(Cl)c4)nn23)c1` [Compound 317], the Ki is more than 2 µM.

In the case of `Oc1ccc(Cc2nnc3ccc(NC4CCOCC4)nn23)cc1` [Compound 318], the Ki fell in the range of 0.1 to 2 µM.

Regarding `C[C@H](c1ccc(O)cc1)c1nnc2ccc(Nc3cccc(Cl)c3)nn12` [Compound 319], the inhibition constant Ki was less than 0.1 µM.

On to `C[C@@H](c1ccc(O)cc1)c1nnc2ccc(Nc3cccc(Cl)c3)nn12` [Compound 320], for which the Ki was less than 0.1 µM.

Turning to `CC(c1ccc(O)cc1)c1nnc2ccc(Nc3cccc(Cl)c3)nn12` (stereo not shown) [Compound 321], the Ki was less than 0.1 µM.

As to `Oc1ccc(Cc2nnc3ccc(NC4CCNCC4)nn23)cc1` [Compound 322], the Ki was more than 2 µM.

For the compound `CC(=O)N1CCC(Nc2ccc3nnc(Cc4ccc(O)cc4)n3n2)CC1` [Compound 323], the Ki lay in the range of 0.1 to 2 µM.

With `CC(C)C(=O)N1CCC(Nc2ccc3nnc(Cc4ccc(O)cc4)n3n2)CC1` [Compound 324], the Ki was 0.1 to 2 µM.

Regarding `O=C(Cc1ccccc1)N1CCC(Nc2ccc3nnc(Cc4ccc(O)cc4)n3n2)CC1` [Compound 325], the Ki lay within 0.1 to 2 µM.

As to `CC(=O)N1CCCC(Nc2ccc3nnc(Cc4ccc(O)cc4)n3n2)C1` (stereo not shown) [Compound 326], the Ki is more than 2 µM.

As to `CC(C)C(=O)N1CCCC(Nc2ccc3nnc(Cc4ccc(O)cc4)n3n2)C1` (stereo not shown) [Compound 327], the Ki was more than 2 µM.

Take `O=C(Cc1ccccc1)N1CCCC(Nc2ccc3nnc(Cc4ccc(O)cc4)n3n2)C1` (stereo not shown) [Compound 328]: the Ki is more than 2 µM.

Consider `Oc1ccc(Cc2nnc3ccc(NC4CC4)nn23)cc1` [Compound 329], for which the Ki was 0.1 to 2 µM.

Take `Oc1ccc(Cc2nnc3ccc(NC4CCC4)nn23)cc1` [Compound 330]: the Ki lay in the range of 0.1 to 2 µM.

On to `COc1cc(NCc2nnc3ccc(Nc4cccc(Cl)c4)nn23)c(C(C)=O)cc1OC` [Compound 331], for which the inhibitory constant (Ki) was more than 2 µM.

As to `COC(=O)c1c(O)cccc1NCc1nnc2ccc(Nc3cccc(Cl)c3)nn12` [Compound 332], the Ki fell in the range of 0.1 to 2 µM.

`Clc1cccc(Nc2ccc3nnc(CNc4cccc(OCc5ccccc5)c4)n3n2)c1` [Compound 333]: the Ki is more than 2 µM.

As for `Clc1cccc(Nc2ccc3nnc(CNc4cccc(Oc5ccccc5)c4)n3n2)c1` [Compound 334], the Ki is more than 2 µM.

Take `COc1ccc(NCc2nnc3ccc(Nc4cccc(Cl)c4)nn23)cc1O` [Compound 335]: the Ki was more than 2 µM.

As for `COc1cccc(NCc2nnc3ccc(Nc4cccc(Cl)c4)nn23)c1` [Compound 336], the Ki fell in the range of 0.1 to 2 µM.

For `COc1ccc(NCc2nnc3ccc(Nc4cccc(Cl)c4)nn23)cc1OC` [Compound 337], the Ki is more than 2 µM.

`Oc1cccc(NCc2nnc3ccc(Nc4cccc(Cl)c4)nn23)c1` [Compound 338]: the Ki is 0.1 to 2 µM.

Regarding `CCOc1cccc(NCc2nnc3ccc(Nc4cccc(Cl)c4)nn23)c1` [Compound 339], the Ki is more than 2 µM.

Consider `O=C(O)c1cc(O)ccc1NCc1nnc2ccc(Nc3cccc(Cl)c3)nn12` [Compound 340], for which the Ki was more than 2 µM.

`Fc1ccc(NCc2nnc3ccc(Nc4cccc(Cl)c4)nn23)cc1F` [Compound 341]: the inhibition constant Ki is more than 2 µM.

For `Fc1ccc(NCc2nnc3ccc(Nc4cccc(Cl)c4)nn23)c(Cl)c1` [Compound 342], the Ki was more than 2 µM.

Take `Fc1ccc(NCc2nnc3ccc(Nc4cccc(Cl)c4)nn23)cc1` [Compound 343]: the Ki was more than 2 µM.

`Fc1ccc(NCc2nnc3ccc(Nc4cccc(Cl)c4)nn23)c(F)c1` [Compound 344]: the Ki is more than 2 µM.

As for `COc1cc(OC)c(NCc2nnc3ccc(Nc4cccc(Cl)c4)nn23)cc1Cl` [Compound 345], the inhibition constant Ki is more than 2 µM.

Regarding `COc1cc(NCc2nnc3ccc(Nc4cccc(Cl)c4)nn23)cc(OC)c1OC` [Compound 346], the Ki was more than 2 µM.

On to `Clc1cccc(Nc2ccc3nnc(CNc4ccc5c(c4)OCO5)n3n2)c1` [Compound 347], for which the Ki is 0.1 to 2 µM.

`Clc1cccc(Nc2ccc3nnc(CNc4ccc5c(c4)OCCO5)n3n2)c1` [Compound 349]: the Ki is more than 2 µM.

Take `COc1ccc(NCc2nnc3ccc(Nc4cccc(Cl)c4)nn23)cc1` [Compound 350]: the Ki is more than 2 µM.

Regarding `COc1ccc(NCc2nnc3ccc(Nc4cccc(Cl)c4)nn23)c(O)c1` [Compound 351], the Ki lay within 0.1 to 2 µM.

Consider `Oc1ccc(NCc2nnc3ccc(Nc4cccc(Cl)c4)nn23)c2cccnc12` [Compound 352], for which the inhibition constant (Ki) is more than 2 µM.

For the compound `COc1ccc(OC)c(NCc2nnc3ccc(Nc4cccc(Cl)c4)nn23)c1` [Compound 353], the Ki is more than 2 µM.

In the case of `Clc1cccc(Nc2ccc3nnc(Cc4ccc(Cl)nc4)n3n2)c1` [Compound 354], the Ki lay within 0.1 to 2 µM.

For the compound `Clc1cccc(Nc2ccc3nnc(Cc4ccc5c(c4)CCO5)n3n2)c1` [Compound 355], the Ki is less than 0.1 µM.

For `CCC(c1ccc(OC)cc1)c1nnc2ccc(Nc3cccc(Cl)c3)nn12` (stereo not shown) [Compound 357], the Ki was less than 0.1 µM.

With `Cc1ccc(Cl)cc1Nc1ccc2nnc(Cc3ccc(O)cc3)n2n1` [Compound 358], the Ki was less than 0.1 µM.

As for `Oc1ccc(Cc2nnc3ccc(Nc4cc(Cl)ccc4F)nn23)cc1` [Compound 359], the Ki is less than 0.1 µM.

On to `COc1ccc(Cl)cc1Nc1ccc2nnc(Cc3ccc(O)cc3)n2n1` [Compound 360], for which the Ki is less than 0.1 µM.

In the case of `Oc1ccc(Cc2nnc3ccc(Nc4cc(Cl)ccc4Cl)nn23)cc1` [Compound 361], the Ki is less than 0.1 µM.

`Fc1ccc(Cl)cc1Nc1ccc2nnc(Cc3ccc4c(c3)OCO4)n2n1` [Compound 362]: the Ki was less than 0.1 µM.

Consider `Clc1ccc(Cl)c(Nc2ccc3nnc(Cc4ccc5c(c4)OCO5)n3n2)c1` [Compound 363], for which the Ki is 0.1 to 2 µM.

For the compound `CS(=O)(=O)c1ccc(Cc2nnc3ccc(Nc4cccc(Cl)c4)nn23)cc1` [Compound 364], the Ki is more than 2 µM.

As to `Oc1cccc(Cc2nnc3ccc(Nc4cccc(Cl)c4)nn23)c1` [Compound 365], the Ki is 0.1 to 2 µM.

In the case of `Oc1ccc(CCc2nnc3ccc(Nc4cccc(Cl)c4)nn23)cc1` [Compound 366], the Ki lay in the range of 0.1 to 2 µM.

For the compound `CCC(c1ccc(O)cc1)c1nnc2ccc(Nc3cccc(Cl)c3)nn12` (stereo not shown) [Compound 367], the Ki is less than 0.1 µM.

Take `Clc1cccc(Nc2ccc3nnc(CCc4cccnc4)n3n2)c1` [Compound 368]: the Ki is more than 2 µM.

With `CS(=O)(=O)Nc1ccc(Cc2nnc3ccc(Nc4cccc(Cl)c4)nn23)cc1` [Compound 369], the Ki was more than 2 µM.

As to `CC1CC(Nc2ccc3nnc(Cc4ccc(O)cc4)n3n2)CC(C)(C)C1` (stereo not shown) [Compound 370], the inhibition constant (Ki) is less than 0.1 µM.

In the case of `Clc1cccc(Nc2ccc3nnc(COc4cccnc4)n3n2)c1` [Compound 371], the inhibitory constant (Ki) lay in the range of 0.1 to 2 µM.

`Cc1ccc(OCc2nnc3ccc(Nc4cccc(Cl)c4)nn23)cn1` [Compound 372]: the Ki was more than 2 µM.

Turning to `Clc1cccc(Nc2ccc3nnc(COc4ccccn4)n3n2)c1` [Compound 373], the Ki is more than 2 µM.

`Clc1cccc(Nc2ccc3nnc(COc4cccnc4Cl)n3n2)c1` [Compound 374]: the Ki is 0.1 to 2 µM.

Consider `Clc1cccc(Nc2ccc3nnc(COc4ccc(Cl)nc4)n3n2)c1` [Compound 375], for which the Ki was more than 2 µM.

As to `Clc1cccc(Nc2ccc3nnc(COc4cccc(Cl)n4)n3n2)c1` [Compound 376], the Ki is more than 2 µM.

As for `Fc1cccc(OCc2nnc3ccc(Nc4cccc(Cl)c4)nn23)c1` [Compound 377], the Ki is more than 2 µM.

On to `Fc1ccc(OCc2nnc3ccc(Nc4cccc(Cl)c4)nn23)cc1F` [Compound 378], for which the Ki is more than 2 µM.

Consider `N#Cc1ccc(OCc2nnc3ccc(Nc4cccc(Cl)c4)nn23)cc1` [Compound 379], for which the Ki is more than 2 µM.
